These results are taken from patent US20050267195A1, “Drug composition for blood sugar control” (priority 2002, published 2005).

SMILES strings stand for the structures. Where a name gives a salt, the structure may show the parent alone.

The subject of data set [1] is type II diabetic patients. Briefly: Clinical study in type II diabetic patients. The data set is classed as in vivo, human. The method, then:
Using the pharmaceutical composition described in Example 1, a clinical study was conducted in type II diabetic patients under the following conditions.
Test drug and Mode of administration: Every patient orally administered either of a combination selected from the following combination groups (one tablet from each) three times a day just before meals (within 5 minutes before starting meal): • The present invention group: (1)+(4) • Positive control group: (2)+(3) • Positive control group: (3)+(4) • (1) a tablet comprising 10 mg of mitiglinide calcium salt hydrate; • (2) a tablet comprising 0.2 mg of voglibose (chemical name: (+)-1L-[1(OH),2,4,5/3]-5-[2-hydroxy-1-(hydroxymethyl)ethyl]amino-1-C-(hydroxymethyl)-1,2,3,4-cyclohexaneterol); • (3) a placebo tablet of mitiglinide calcium salt hydrate not containing any active ingredient; and • (4) a placebo tablet of voglibose not containing any active ingredient. • Treatment period: 12 weeks • Observation item: The following items were measured before administration, at a certain fixed time after the start of administration and at the completion of administration, and their changes were calculated, or the frequency of adverse drug reactions was calculated, and then evaluated.

A further data set deals with healthy male adults. Briefly: Clinical study on administration timing. In kind it is in vivo, human. As to the method: Administration timing before taking a meal was evaluated in healthy male adults. Used test drugs were a tablet comprising 10 mg of mitiglinide calcium salt hydrate and a placebo tablet. The tablet comprising 10 mg of mitiglinide calcium salt hydrate was administered at 0.5 min, 5 min, 10 min or 30 min before starting meal (Positive group), while the placebo tablet was administered at 0.5 min before starting meal. After administration, blood glucose levels were measured at starting meal and evaluated.

Setting [2] is: in comparison with voglibose and placebo.

Take `OCC(CO)N[C@H]1C[C@](O)(CO)[C@@H](O)[C@H](O)[C@H]1O` [voglibose, (+)-1L-[1(OH),2,4,5/3]-5-[2-hydroxy-1-(hydroxymethyl)ethyl]amino-1-C-(hydroxymethyl)-1,2,3,4-cyclohexaneterol, reference compound]: the “Change in 2 hour value of PPG, mean value” in data set [1] (final evaluation, three times a day just before meals, 12 weeks) is -5.1 mg/dL. Besides, the “effect on HbA1C value (in words)” value in data set [1] (in comparison with placebo) is “significantly lowered HbA1C value”.
For the molecule `O=C(O)[C@H](CC(=O)N1C[C@H]2CCCC[C@H]2C1)Cc1ccccc1` [mitiglinide calcium salt hydrate, (+)-monocalcium bis[(2S,3a,7a-cis)-α-benzylhexahydro-γ-oxo-2-isoindolinebutyrate] dihydrate], the “effect on HbA1C value (in words)” value in data set [1] (after 4 weeks after the start of administration, in comparison with voglibose and placebo) is “significantly lowered HbA1C value”. In addition, the “frequencies of hypoglycemic symptoms and gastrointestinal disorders (in words)” value in data set [1] (human, in vivo) is “decreased the frequencies of hypoglycemic symptoms and gastrointestinal disorders”. Moreover, in data set [1] (setting [2]), the “effect on 1 hour and 2 hour values of postprandial plasma glucose (PPG) (in words)” value was “significantly lowered 1 hour and 2 hour values of postprandial plasma glucose (PPG)”. Moreover, the “effect on early morning fasting plasma glucose (FPG) (in words)” value in data set [1] (setting [2]) is “significantly lowered early morning fasting plasma glucose (FPG)”. For the same molecule, the “blood glucose level at starting meal (in words)” value is given as “notably declined” with healthy male adults (administered at 30 minutes before starting meal) and “able to maintain good blood glucose level” in the data set on healthy male adults (administrated within 10 minutes before starting meal).
